Reference: publication PMC10023787, “Trio-pharmacophore DNA-encoded chemical library for simultaneous selection of fragments and linkers” (Nature Communications, 2023)

Key:
bovine trypsin = biological target: T1, bovine trypsin (Bos taurus, UniProt P00760); assay: Trypsin inhibition assay (proteolytic activity on BApNA); type: biochemical; settings: for remaining activity at 1000 µM: Concentration 1000000 nM; for IC50: mean ± SE, three independent measurements, n.d: not detected; for improvement (of inhibitory effect): compared with 4-aminomethyl benzamidine
T1 construct: purchased Sigma-Aldrich T8003
T1 sequence (P00760 24-246): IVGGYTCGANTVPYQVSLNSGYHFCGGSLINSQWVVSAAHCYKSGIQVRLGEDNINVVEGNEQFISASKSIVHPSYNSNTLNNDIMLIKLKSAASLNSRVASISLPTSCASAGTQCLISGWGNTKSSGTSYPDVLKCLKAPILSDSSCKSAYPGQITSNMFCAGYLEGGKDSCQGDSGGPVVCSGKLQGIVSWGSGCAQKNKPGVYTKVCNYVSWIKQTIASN
Description: The inhibition by the benzamidine derivatives against trypsin was measured using an assay probing the enzyme proteolytic activity on the substrate Nα-Benzoyl-DL-arginine-4-nitroanilide hydrochloride (BApNA). […] 5 µl of BApNA solution (10 mM, dissolved in DMSO) were added immediately prior to the measurement. The final total volume was 100 µl per well. The measurements were performed in a Low Binding 384-well plate. The absorption was measured at 410 nm in intervals of 10 sec for 15 min at 37 °C using a Beckman Coulter’s Paradigm Detection Platform (Brea, USA). The measurements were performed in triplicate. The activity of trypsin was calculated by the hydrolysis rate of BApNA after subtraction of the background-hydrolysis rate. The curves were plotted as a function of the concentration of the inhibitor against the relative enzyme activity. Vmax was derived from the detected absorption signal for each concentration and logistic fitting was performed to obtain IC50 values using Origin 2019b (OriginLab).

[1] = biological target: T2, bovine carbonic anhydrase II (CAII) (Bos taurus, UniProt P00921); assay: Carbonic anhydrase II inhibition assay (esterase activity on p-nitrophenyl acetate); type: biochemical
T2 construct: purchased Sigma-Aldrich C7749
Description: CAII inhibition assay was performed to measure the inhibitory effect of re-synthesized CBS-conjugates. The esterase activity of CAII with a chromogenic substrate p-nitrophenyl acetate (pNPA) was measured. The rates of hydrolysis were determined by an increase of absorption at 410 nm after incubating different compounds with CAII. Re-synthesized compounds were diluted in a serial spanning mM to μM concentrations. […] 5 µl of pNPA (50 mM in 20% DMSO) was added to the plate right before the measurement. The absorption was measured at 37 °C each 10 sec for 15 min using a Beckman Coulter’s Paradigm Detection Platform (Brea, USA). The initial Vmax was obtained from the increase of absorption and the Vmax was plotted against the inhibitor concentrations and logistic fitting was performed to obtain IC50 values using Origin 2019b (OriginLab) software.

[2] = Concentration 0.1024 nM, fraction of uninhibited activity, read-out: mean (Figure 3c, dose-response, relative trypsin activity)
[3] = Concentration 0.512 nM, fraction of uninhibited activity, read-out: mean (Figure 3c, dose-response, relative trypsin activity)
[4] = Concentration 2.56 nM, fraction of uninhibited activity, read-out: mean (Figure 3c, dose-response, relative trypsin activity)
[5] = Concentration 64 nM, fraction of uninhibited activity, read-out: mean (Figure 3c, dose-response, relative trypsin activity)
[6] = Concentration 320 nM, fraction of uninhibited activity, read-out: mean (Figure 3c, dose-response, relative trypsin activity)
[7] = Concentration 1600 nM, fraction of uninhibited activity, read-out: mean (Figure 3c, dose-response, relative trypsin activity)
[8] = Concentration 8000 nM, fraction of uninhibited activity, read-out: mean (Figure 3c, dose-response, relative trypsin activity)
[9] = Concentration 40000 nM, fraction of uninhibited activity, read-out: mean (Figure 3c, dose-response, relative trypsin activity)
[10] = Concentration 200000 nM, fraction of uninhibited activity, read-out: mean (Figure 3c, dose-response, relative trypsin activity)
[11] = fraction of uninhibited activity, read-out: mean (Figure 3c, dose-response, relative trypsin activity)
[12] = Concentration 0.1024 nM, fraction of uninhibited activity
[13] = Concentration 0.512 nM, fraction of uninhibited activity
[14] = Concentration 2.56 nM, fraction of uninhibited activity
[15] = Concentration 64 nM, fraction of uninhibited activity
[16] = Concentration 320 nM, fraction of uninhibited activity
[17] = Concentration 1600 nM, fraction of uninhibited activity
[18] = Concentration 8000 nM, fraction of uninhibited activity
[19] = Concentration 40000 nM, fraction of uninhibited activity
[20] = Concentration 200000 nM, fraction of uninhibited activity
[21] = Concentration […], fraction of uninhibited activity

T2 sequence (P00921 whole entry): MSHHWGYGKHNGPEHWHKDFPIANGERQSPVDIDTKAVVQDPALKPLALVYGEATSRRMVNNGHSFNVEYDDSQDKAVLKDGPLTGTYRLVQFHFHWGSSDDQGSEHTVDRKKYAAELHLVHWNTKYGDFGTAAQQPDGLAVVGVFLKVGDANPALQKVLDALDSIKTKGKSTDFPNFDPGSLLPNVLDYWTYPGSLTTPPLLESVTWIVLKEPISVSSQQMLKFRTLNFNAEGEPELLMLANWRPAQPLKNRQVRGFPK

remaining activity at 0.0001024 µM (bovine trypsin; [2]) [%]	remaining activity at 0.000512 µM (bovine trypsin; [3]) [%]	remaining activity at 0.00256 µM (bovine trypsin; [4]) [%]	remaining activity at 0.064 µM (bovine trypsin; [5]) [%]	remaining activity at 0.32 µM (bovine trypsin; [6]) [%]	remaining activity at 1.6 µM (bovine trypsin; [7]) [%]	remaining activity at 8 µM (bovine trypsin; [8]) [%]	remaining activity at 40 µM (bovine trypsin; [9]) [%]	remaining activity at 200 µM (bovine trypsin; [10]) [%]	remaining activity at 1000 µM (bovine trypsin; [11]) [%]	mean (Figure 3c, dose-response, relative trypsin activity) (bovine trypsin; [12])	mean (Figure 3c, dose-response, relative trypsin activity) (bovine trypsin; [13])	mean (Figure 3c, dose-response, relative trypsin activity) (bovine trypsin; [14])	mean (Figure 3c, dose-response, relative trypsin activity) (bovine trypsin; [15])	mean (Figure 3c, dose-response, relative trypsin activity) (bovine trypsin; [16])	mean (Figure 3c, dose-response, relative trypsin activity) (bovine trypsin; [17])	mean (Figure 3c, dose-response, relative trypsin activity) (bovine trypsin; [18])	mean (Figure 3c, dose-response, relative trypsin activity) (bovine trypsin; [19])	mean (Figure 3c, dose-response, relative trypsin activity) (bovine trypsin; [20])	IC50 (bovine trypsin) [µM]	SMILES	further results
–	–	–	–	–	–	–	–	–	–	0.916	1.0035	1.023	0.976	0.9546	0.8556	0.5625	0.1537	0.03111	–	N=C(N)c1ccc(CNC(=O)C2CCC(C(=O)NCCNC(=S)Nc3cccc(I)c3)CC2)cc1 (centres unmarked) [Compound T-4]	mean (Figure 3c, dose-response, relative trypsin activity) (bovine trypsin; Concentration 440000 nM, fraction of uninhibited activity): 0.01768; mean (Figure 3c, dose-response, relative trypsin activity) (bovine trypsin; [21]): 0.9246
101	110	107	110	102	97.5	74	23.7	5.61	1.19	–	–	–	–	–	–	–	–	–	16.6 ± 3.1	N=C(N)c1ccc(CNC(=S)Nc2cccc(I)c2)cc1 [Compound T-0]	improvement (of inhibitory effect) (bovine trypsin): approximately 9 fold
105	104	106	109	97.3	81.2	37.4	7.09	1.08	–	–	–	–	–	–	–	–	–	–	5.2 ± 2.2	N=C(N)c1ccc(CNCc2ccc(C(=O)NCCNC(=S)Nc3cccc(I)c3)cc2)cc1 [Compound T-2]	remaining activity at 365 µM (bovine trypsin; Concentration 365000 nM, fraction of uninhibited activity, read-out: mean (Figure 3c, dose-response, relative trypsin activity)): 0.681%; improvement (of inhibitory effect) (bovine trypsin): 70 fold
93.7	99.6	98.7	108	90.1	56.5	18.3	3.2	0.69	–	–	–	–	–	–	–	–	–	–	2.1 ± 0.4	N=C(N)c1ccc(CNC(=O)C2CCC(C(=O)NCCNC(=S)Nc3cccc(I)c3)CC2)cc1 (centres unmarked) [Compound T-3]	remaining activity at 650 µM (bovine trypsin; Concentration 650000 nM, fraction of uninhibited activity, read-out: mean (Figure 3c, dose-response, relative trypsin activity)): 0%; improvement (of inhibitory effect) (bovine trypsin): 30 fold
–	–	–	–	–	–	–	–	–	–	0.9598	1.038	1.032	1.057	1.07	0.9365	0.7184	0.2303	0.05821	–	N=C(N)c1ccc(CNC(=O)CCCC(=O)NCCNC(=S)Nc2cccc(I)c2)cc1 [Compound T-1]	mean (Figure 3c, dose-response, relative trypsin activity) (bovine trypsin; Concentration 830000 nM, fraction of uninhibited activity): 0.00834; mean (Figure 3c, dose-response, relative trypsin activity) (bovine trypsin; [21]): 1.021

The next lines start with the compound.

SMILES	remaining activity at 0.0001024 µM (bovine trypsin; [2]) [%]	remaining activity at 0.000512 µM (bovine trypsin; [3]) [%]	remaining activity at 0.00256 µM (bovine trypsin; [4]) [%]	remaining activity at 0.064 µM (bovine trypsin; [5]) [%]	remaining activity at 0.32 µM (bovine trypsin; [6]) [%]	remaining activity at 1.6 µM (bovine trypsin; [7]) [%]	remaining activity at 8 µM (bovine trypsin; [8]) [%]	remaining activity at 40 µM (bovine trypsin; [9]) [%]	remaining activity at 200 µM (bovine trypsin; [10]) [%]	remaining activity at 1000 µM (bovine trypsin; [11]) [%]	mean (Figure 3c, dose-response, relative trypsin activity) (bovine trypsin; [12])	mean (Figure 3c, dose-response, relative trypsin activity) (bovine trypsin; [13])	mean (Figure 3c, dose-response, relative trypsin activity) (bovine trypsin; [14])	mean (Figure 3c, dose-response, relative trypsin activity) (bovine trypsin; [15])	mean (Figure 3c, dose-response, relative trypsin activity) (bovine trypsin; [16])	mean (Figure 3c, dose-response, relative trypsin activity) (bovine trypsin; [17])	mean (Figure 3c, dose-response, relative trypsin activity) (bovine trypsin; [18])	mean (Figure 3c, dose-response, relative trypsin activity) (bovine trypsin; [19])	mean (Figure 3c, dose-response, relative trypsin activity) (bovine trypsin; [20])	IC50 (bovine trypsin) [µM]	further results
S=C=Nc1ccccc1I [Compound B, 2-iodophenyl isothiocyanate, reference compound]	103	102	94.8	107	107	100	108	105	114	90.1	–	–	–	–	–	–	–	–	–	–	inhibitory effect (bovine trypsin; in words): did not display any detectable inhibitory effect
N=C(N)c1ccc(CN)cc1 [4-Aminomethyl benzamidine, 4-aminomethyl benzamidine, reference compound]	108	96.5	102	110	101	106	103	82.5	44.6	12.9	–	–	–	–	–	–	–	–	–	147	–
NS(=O)(=O)c1ccc(NCc2ccc(C(=O)NCCNC(=O)/C=C/c3ccc(-c4ccccc4C(F)(F)F)o3)cc2)cc1 [Compound C-1]	–	–	–	–	–	–	–	–	–	–	–	–	–	–	–	–	–	–	–	–	remaining activity at 0.0001024 µM ([1]; 0.1024 nM compound, source data of Fig. 2c, read-out: Normalized CA II Activity (Mean)): 93.8%; remaining activity at 0.000512 µM ([1]; 0.512 nM compound, source data of Fig. 2c, read-out: Normalized CA II Activity (Mean)): 93.6%; remaining activity at 0.00256 µM ([1]; 2.56 nM compound, source data of Fig. 2c, read-out: Normalized CA II Activity (Mean)): 90.4%; remaining activity at 0.064 µM ([1]; 64 nM compound, source data of Fig. 2c, read-out: Normalized CA II Activity (Mean)): 87.7%; remaining activity at 0.32 µM ([1]; 320 nM compound, source data of Fig. 2c, read-out: Normalized CA II Activity (Mean)): 71.8%; remaining activity at 1.6 µM ([1]; 1600 nM compound, source data of Fig. 2c, read-out: Normalized CA II Activity (Mean)): 43%; remaining activity at 8 µM ([1]; 8000 nM compound, source data of Fig. 2c, read-out: Normalized CA II Activity (Mean)): 19.9%; remaining activity at 40 µM ([1]; 40000 nM compound, source data of Fig. 2c, read-out: Normalized CA II Activity (Mean)): 8.01%; remaining activity at 200 µM ([1]; 200000 nM compound, source data of Fig. 2c, read-out: Normalized CA II Activity (Mean)): 2.91%; IC50 ([1]; mean ± SE, three independent measurements, n.d: not detected): 1290 ± 90 nM
N=C(N)c1ccc(CNC2CC(=O)N(CC3CCC(C(=O)NCCNC(=S)Nc4cccc(I)c4)CC3)C2=O)cc1 (centres unmarked) [Compound T-5]	–	–	–	–	–	–	–	–	–	–	1.021	0.9691	0.9977	0.9529	0.962	0.9553	0.8147	0.4599	0.1722	–	mean (Figure 3c, dose-response, relative trypsin activity) (bovine trypsin; Concentration 650000 nM, fraction of uninhibited activity): 0.07286; mean (Figure 3c, dose-response, relative trypsin activity) (bovine trypsin; [21]): 0.9721
